Measured values reported in patent publication US5602099A, “δ opioid receptor antagonists” (Aktiebolaget Astra, priority 1993, dated 1997).
Read-outs that look alike come from different tables or passages of the source. Peptide text beside a SMILES is read from it.

Key:
[1] = molecular target: T1, μ opioid receptors (Cavia porcellus, UniProt P97266); experiment: Guinea pig ileum (GPI) bioassay, inhibition of electrically evoked contractions; assay type: cell-based; settings: agonist potency
From the text: (§1) a) Biosassys based on inhibition of electrically evoked contractions of the mouse vas deferens (MVD) and of the guinea pig ileum (GPI). In the GPI assay the opioid effect is primarily mediated by μ opioid receptors, whereas in the MVD assay the inhibition of the contractions is mostly due to interaction with δ opioid receptors.
(§2) The GPI and MVD bioassays were carded out as reported in P. W. Schiller et al., Biochem. Biophys. Res. Commun 85, 1332-1338 (1978) and J. Di Maio et al., J. Med. Chem. 25, 1432-1438 (1982). A log dose-response curve was determind with [Leu^5 ]enkephalin as standard for each ileum and vas preparation, and IC50 values of the compounds being tested were normalized according to A. A Waterfield et al., Eur. J. Pharmacol. 58, 11-18 (1979). […] These determinations were made with the MVD assay, using three different δ-selective agonists ([Leu^5 ] enkephalin, DPDPE and [D-Ala^2 ]deltorphin I].

[2] = molecular target: T2, δ opioid receptors (Mus musculus, UniProt P32300); experiment: Mouse vas deferens (MVD) bioassay, antagonism of electrically evoked contraction inhibition by δ-selective agonists; assay type: tissue-based; settings: MVD assay, means of 3-8 determinations
T2 construct: Bioassays Using Isolated Organ Preparations; from tissue; host or cells: mouse vas deferens (isolated organ)
T2 sequence (P32300 whole entry): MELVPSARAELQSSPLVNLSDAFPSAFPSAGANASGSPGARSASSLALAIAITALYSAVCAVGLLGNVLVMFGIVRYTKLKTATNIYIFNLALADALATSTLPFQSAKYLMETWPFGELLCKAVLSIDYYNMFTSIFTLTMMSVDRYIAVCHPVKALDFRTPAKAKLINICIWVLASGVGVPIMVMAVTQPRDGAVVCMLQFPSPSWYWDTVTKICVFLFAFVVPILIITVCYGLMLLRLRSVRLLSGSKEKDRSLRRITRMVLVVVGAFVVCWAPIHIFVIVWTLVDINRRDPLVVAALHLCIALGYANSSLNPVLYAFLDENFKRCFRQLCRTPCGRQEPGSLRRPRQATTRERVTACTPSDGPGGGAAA
From the text: as §1, §2

[3] = molecular target: T1, μ opioid receptors; settings: literature value; cited from earlier work
[4] = molecular target: T3, μ opioid receptor (Rattus norvegicus, UniProt P33535); experiment: μ opioid receptor binding assay, displacement of [3H]DAMGO from rat brain membranes
T3 construct: Male Sprague-Dawley rats (300-350 g) from the Canadian Breeding Laboratories were decapitated and after removal of the cerebellum the brains were homogenized; from tissue; host or cells: rat brain (without cerebellum) membranes, male Sprague-Dawley
T3 sequence (P33535 whole entry): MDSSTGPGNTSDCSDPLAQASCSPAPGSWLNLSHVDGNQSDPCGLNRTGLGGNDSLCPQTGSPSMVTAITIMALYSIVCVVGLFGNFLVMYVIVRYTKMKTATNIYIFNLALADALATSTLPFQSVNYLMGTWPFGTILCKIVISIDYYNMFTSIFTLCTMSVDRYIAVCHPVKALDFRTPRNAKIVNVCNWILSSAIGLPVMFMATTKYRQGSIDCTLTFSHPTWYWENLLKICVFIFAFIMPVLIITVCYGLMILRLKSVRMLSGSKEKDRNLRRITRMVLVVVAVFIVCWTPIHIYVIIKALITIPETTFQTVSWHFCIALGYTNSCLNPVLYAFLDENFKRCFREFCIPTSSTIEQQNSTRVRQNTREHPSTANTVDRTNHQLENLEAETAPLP
From the text: (§3) In the case of κ-ligands guinea pig brain homogenates were used, since the relative proportion of κ-binding sites is higher in guinea pig brain than in rat brain. The experimental procedure being used in our laboratory represents a modified version of the binding assay described by Pasternak et al. (Mol. Pharmacol. 11, 340-351, (1975)). Male Sprague-Dawley rats (300-350 g) from the Canadian Breeding Laboratories were decapitated and after removal of the cerebellum the brains were homogenized in 30 volumes of ice-cold standard buffer (50 mM Tris-HCl, pH 7.7). After centrifugation at 30,000×g for 30 min at 4° C. the membranes were reconstituted in the original volume of standard buffer and incubated for 30 min at 37° C. (to realease bound endogenous ligands). […] The incubation was terminated by filtration through Batman GF/B filters under vacuum at 4° C. Following two washings with 5 ml portions of ice-cold standard buffer the filters were transferred to scintillation vials and treated with 1 ml Protosol (New England Nuclear) for 30 min prior to the addition of 0.5 ml acetic acid and 10 ml Aquasol (New England Nuclear). After shaking for 30 min the vials were counted at an efficiency of 40-45%. All experiments were performed in duplicates and repeated at least three times. […] Values of half-maximal inhibition (IC50) of specific binding were obtained graphically from semilogarithmic plots. From the measured IC50-values, binding inhibition constants (Ki) were then calculated based on Cheng and Prusoff's equation (Biochem, Pharmacol. 22, 3099-3102 (1973)). Ratios of the Ki -values in the μ-, δ- and κ-representative binding assays are a measure of the receptor selectivety of the compound under investigation (e.g. Ki^μ /Ki^δ indicates the selectivity for δ-receptors versus μ-receptors).

[5] = molecular target: T4, δ opioid receptor (Rattus norvegicus, UniProt P33533); experiment: δ opioid receptor binding assay, displacement of δ-selective radioligand from rat brain membranes
T4 construct: Male Sprague-Dawley rats (300-350 g) from the Canadian Breeding Laboratories were decapitated and after removal of the cerebellum the brains were homogenized; from tissue; host or cells: rat brain (without cerebellum) membranes, male Sprague-Dawley
T4 sequence (P33533 whole entry): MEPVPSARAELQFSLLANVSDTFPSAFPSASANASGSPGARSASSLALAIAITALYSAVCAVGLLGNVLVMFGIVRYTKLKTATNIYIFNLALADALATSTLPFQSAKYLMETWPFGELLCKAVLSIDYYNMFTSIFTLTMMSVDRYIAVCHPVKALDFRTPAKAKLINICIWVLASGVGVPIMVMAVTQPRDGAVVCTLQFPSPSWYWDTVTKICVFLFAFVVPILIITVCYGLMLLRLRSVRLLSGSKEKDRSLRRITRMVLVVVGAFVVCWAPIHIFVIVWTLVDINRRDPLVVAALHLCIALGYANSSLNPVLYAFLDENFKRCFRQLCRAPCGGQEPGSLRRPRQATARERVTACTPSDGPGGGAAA
From the text: as §3

[6] = Ke (nM) against DPDPE, δ agonist DPDPE
[7] = Ke (nM) against [D-Ala2]deltorphin I, δ agonist [D-Ala2]deltorphin I
[8] = Ke (nM) against [Leu5]Enkephalin, δ agonist [Leu5]enkephalin
[9] = δ agonist DPDPE, read-out: Ke (nM) against DPDPE

T1 sequence (P97266 whole entry, looked up): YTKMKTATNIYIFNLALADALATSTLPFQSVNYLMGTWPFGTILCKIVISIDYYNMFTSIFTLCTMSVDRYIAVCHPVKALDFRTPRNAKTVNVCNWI

| SMILES | IC50 [1] [nM] | Kb [2, 6] [nM] | Kb [2, 7] [nM] | Kb [2, 8] [nM] | Ke (μ antagonist) in the guinea pig ileum (GPI) assay [3] [nM] | Kb [2, 9] [nM] | Kb ([2]; δ agonist [D-Ala2]deltorphin I, read-out: Ke (nM) against [D-Ala2]deltorphin I) [nM] | Ki ([4]; rat brain membranes, means of 3 determinations, read-out: Ki^μ) [nM] | Ki ([5]; rat brain membranes, means of 3 determinations, read-out: Ki^.xi.) [nM] | Ki [4] [nM] | Ki [5] [nM] | Ki^μ /Ki^δ ([5]; δ-selectivity ratio) |
| --- | --- | --- | --- | --- | --- | --- | --- | --- | --- | --- | --- | --- |
| Cc1cc(O)cc(C)c1C[C@H](N)C(=O)N1Cc2ccccc2C[C@H]1CN[C@@H](Cc1ccccc1)C(=O)N[C@@H](Cc1ccccc1)C(N)=O [HDmtTic.psi.[CH2NH]PhePheNH2, H-Dmt-Tic.PSI.[CH2 --NH]Phe-Phe-NH2] | 7.71 | 0.42 | 0.486 | 0.47 |  |  |  |  |  |  |  |  |
| Oc1ccc2c3c1O[C@H]1c4[nH]c5ccccc5c4C[C@@]4(O)[C@@H](C2)N(CC2CC2)CC[C@]314 [Naltrindole, naltrindole, reference compound] |  |  |  | 0.85 | 29 | 0.632 | 0.636 |  |  |  |  |  |
| NC(=O)[C@H](Cc1ccccc1)NC(=O)[C@H](Cc1ccccc1)NC(=O)[C@@H]1Cc2ccccc2CN1C(=O)[C@@H](N)Cc1ccc(O)cc1 [HTyrTicPhePheNH2, H-Tyr-Tic-Phe-Phe-NH2] (HELM PEPTIDE1{Y.[Tic].F.F.[am]}$$$$V2.0) |  |  | 14.4 | 15.7 |  | 18 |  | 78.8 | 3 |  |  |  |
| N[C@@H](Cc1ccc(O)cc1)C(=O)N1Cc2ccccc2C[C@H]1C(=O)N[C@@H](CCc1ccccc1)C(=O)N[C@@H](Cc1ccccc1)C(=O)O [HTyrTicHfePheOH, H-Tyr-Tic-Hfe-Phe-OH] (HELM PEPTIDE1{Y.[Tic].[O=C([C@H](CCc1ccccc1)N[*:1])[*:2]].F}$$$$V2.0) |  | 0.609 | 0.408 | 1.23 |  |  |  |  |  | 1990 | 0.277 | 7180 |
